Measurements from US9139557B2, “Carboxamide compounds and their use as calpain inhibitors” (Abbott GmbH & Co. KG, priority 2006, dated 2015).

How the values were obtained:
cathepsin S = target: T1, cathepsin S (Homo sapiens, UniProt P25774); test: Cathepsin S enzyme inhibition in vitro (kinetic fluorescence assay); format: biochemical; details: Ki(cathepsin S)/Ki(calpain) ratio
T1 construct: purchased Calbiochem 219343; host or cells: E. coli
Procedure: (§1) Testing for blockade of the corresponding enzymic activities was carried out by means of kinetic fluorescence assays (excitation 390 nm, emission 460 nm).
(§2) Apparent Ki values were calculated from the experimentally determined IC50 values by the Cheng-Prussoff relation assuming a reversible competitive enzyme inhibition. The Km values of the substrates used under the assay conditions indicated above were: 90 μM (Z-Phe-Arg-AMC, cathepsin B), 10 μM (Z-Gly-Pro-Arg-AMC, cathepsin K), 2 μM (Z-Phe-Arg-AMC, cathepsin L), and 30 μM (Z-Val-Val-Arg-AMC, cathepsin S).
(§3) The indicated Ki values are averages of the inhibition constants calculated on the basis of 2 to 4 independent dose-effect plots.
(§4) • 1. Calpain I: • 20 nM calpain-I—isolated from human erythrocytes (Calbiochem #208713), 100 μM Suc-Leu-Tyr-AMC (Bachem #1-1355) as substrate in buffer with 62 mM imidazole, 0.3 mM CaCl2, 0.10% CHAPS, 0.05% BSA, 1 mM DTT at pH 7.3 and room temperature. • 2. Cathepsin B: • 0.25 nM cathepsin B—isolated from human liver (Calbiochem #219362), 100 μM Z-Phe-Arg-AMC (Bachem #1-1160) as substrate 50 mM MES, 2 mM EDTA, 0.05% Brij 35, 2.5 mM L-cysteine, pH 6.0, room temperature. • 3. Cathepsin K: • 3 nM cathepsin K—activated from recombinant human procathepsin K from E. coli (Calbiochem #342001), 10 μM Z-Gly-Pro-Arg-AMC (Biomol #P-142) as substrate in 50 mM MES, 2 mM EDTA, 0.05% Brij 35, 2.5 mM L-cysteine, pH 6.0, room temperature. • 4. Cathepsin L: • 1 nM cathepsin L—isolated from human liver (Calbiochem #219402), 2 μM Z-Phe-Arg-AMC (Bachem #1-1160) as substrate in 50 mM MES, 2 mM EDTA, 0.05% Brij 35, 2.5 mM L-cysteine, pH 6.0, room temperature. • 5. Cathepsin S: • 0.5 nM recombinant human cathepsin S from E. coli (Calbiochem #219343), 20 μM Z-Val-Val-Arg-AMC (Bachem #1-1540) as substrate in 50 mM MES, 2 mM EDTA, 0.05% Brij 35, 2.5 mM L-cysteine, pH 6.0, room temperature.

cathepsin L = target: T2, cathepsin L (Homo sapiens, UniProt P07711); test: Cathepsin L enzyme inhibition in vitro (kinetic fluorescence assay); format: biochemical; details: Ki(cathepsin L)/Ki(calpain) ratio
T2 construct: cathepsin L—isolated from human liver; purchased Calbiochem 219402; host or cells: human liver (tissue isolate)
T2 sequence (P07711 114-333): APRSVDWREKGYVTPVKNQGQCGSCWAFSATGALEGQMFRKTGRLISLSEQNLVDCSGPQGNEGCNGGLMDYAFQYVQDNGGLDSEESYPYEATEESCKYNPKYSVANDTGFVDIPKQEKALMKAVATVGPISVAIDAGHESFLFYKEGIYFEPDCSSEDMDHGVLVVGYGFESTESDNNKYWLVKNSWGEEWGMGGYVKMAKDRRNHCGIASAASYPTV
Procedure: as §1, §2, §3, §4

T1 sequence (P25774 115-331): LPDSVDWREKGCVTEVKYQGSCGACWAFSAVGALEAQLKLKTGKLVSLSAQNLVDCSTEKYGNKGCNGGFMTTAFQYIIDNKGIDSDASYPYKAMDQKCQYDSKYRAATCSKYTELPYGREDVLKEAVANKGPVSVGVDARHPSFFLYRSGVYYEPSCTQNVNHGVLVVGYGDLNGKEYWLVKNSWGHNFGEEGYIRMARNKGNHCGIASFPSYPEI

CCCCC(NC(=O)c1cccnc1-n1ccc(-c2ccc(CN3CCOCC3)cc2)n1)C(=O)C(N)=O (centres unmarked) [Example 45, N-{1-[Amino(oxo)acetyl]pentyl}-2-{3-[4-(morpholin-4-ylmethyl)phenyl]-1H-pyrazol-1-yl}nicotinamide]
Sel cat. S (cathepsin S): + (+ means 50≦Ki(cathepsin S)/Ki(calpain)<100)

CCCCC(NC(=O)c1cccnc1-n1ccc(-c2cccc(N3CCOCC3)c2)n1)C(=O)C(N)=O (centres unmarked) [Example 59, N-{1-[Amino(oxo)acetyl]pentyl}-2-[3-(3-morpholin-4-ylphenyl)-1H-pyrazol-1-yl]nicotinamide]
Sel cat. L (cathepsin L): ++ (++ means a Ki(cathepsin L)/Ki(calpain) ratio of ≧50)
Sel cat. S (cathepsin S): + (+ means 50≦Ki(cathepsin S)/Ki(calpain)<100)

CCCCC(NC(=O)c1cccnc1-n1cnc(-c2ccc(N3CCOCC3)cc2)c1)C(=O)C(N)=O.Cl (centres unmarked) [Example 15, N-{1-[Amino(oxo)acetyl]pentyl}-2-[4-(4-morpholin-4-ylphenyl)-1H-imidazol-1-yl]nicotinamide hydrochloride]
Sel cat. L (cathepsin L): ++ (++ means a Ki(cathepsin L)/Ki(calpain) ratio of ≧50)
Sel cat. S (cathepsin S): + (+ means 50≦Ki(cathepsin S)/Ki(calpain)<100)

CCCCC(NC(=O)c1cc(Cl)cnc1-n1cnc(-c2ccccc2)c1)C(=O)C(N)=O.Cl (centres unmarked) [Example 24, N-{1-[Amino(oxo)acetyl]pentyl}-5-chloro-2-(4-phenyl-1H-imidazol-1-yl)nicotinamide hydrochloride]
Sel cat. L (cathepsin L): + (+ means 30≦Ki(cathepsin L)/Ki(calpain)<50)

COc1ccc(-c2cn(-c3ncccc3C(=O)NC(Cc3ccccc3)C(=O)C(N)=O)cn2)cc1 (centres unmarked) [Example 13, N-(3-Amino-1-benzyl-2,3-dioxopropyl)-2-[4-(4-methoxyphenyl)-1H-imidazol-1-yl]nicotinamide]
Sel cat. L (cathepsin L): ++ (++ means a Ki(cathepsin L)/Ki(calpain) ratio of ≧50)
Sel cat. S (cathepsin S): + (+ means 50≦Ki(cathepsin S)/Ki(calpain)<100)

NC(=O)C(=O)C(Cc1ccccc1)NC(=O)c1cccnc1-n1ccc(-c2ccc(CN3CCOCC3)cc2)n1 (centres unmarked) [Example 46, N-(3-Amino-1-benzyl-2,3-dioxopropyl)-2-{3-[4-(morpholin-4-ylmethyl)phenyl]-1H-pyrazol-1-yl}nicotinamide]
Sel cat. S (cathepsin S): ++ (++ means a Ki(cathepsin S)/Ki(calpain) ratio of ≧100)

NC(=O)C(=O)C(Cc1ccccc1)NC(=O)c1cccnc1-n1cnc(-c2ccc(N3CCOCC3)cc2)c1 (centres unmarked) [Example 14, N-(3-Amino-1-benzyl-2,3-dioxopropyl)-2-[4-(4-morpholin-4-ylphenyl)-1H-imidazol-1-yl]nicotinamide]
Sel cat. S (cathepsin S): ++ (++ means a Ki(cathepsin S)/Ki(calpain) ratio of ≧100)

NC(=O)C(=O)C(Cc1ccccc1)NC(=O)c1cccnc1-n1ccc(-c2ccc(-n3ccnc3)cc2)n1 (centres unmarked) [Example 101, N-[3-Amino-2,3-dioxo-1-(phenylmethyl)propyl]-2-{3-[4-(1H-imidazol-1-yl)phenyl]-1H-pyrazol-1-yl}pyridine-3-carboxamide]
Sel cat. S (cathepsin S): ++ (++ means a Ki(cathepsin S)/Ki(calpain) ratio of ≧100)

NC(=O)C(=O)C(Cc1ccccc1)NC(=O)c1cccnc1-n1cc(CN2CCOCC2)c(-c2cccc(C(F)(F)F)c2)n1 (centres unmarked) [Example 177, N-[3-Amino-2,3-dioxo-1-(phenylmethyl)propyl]-2-{4-(morpholin-4-ylmethyl)-3-[3-(trifluoromethyl)phenyl]-1H-pyrazol-1-yl}pyridine-3-carboxamide]
Sel cat. S (cathepsin S): ++ (++ means a Ki(cathepsin S)/Ki(calpain) ratio of ≧100)

Cc1cn(-c2ncccc2C(=O)NC(Cc2ccccc2)C(=O)C(N)=O)nc1-c1ccccc1 (centres unmarked) [Example 86, N-[3-Amino-2,3-dioxo-1-(phenylmethyl)propyl]-2-(4-methyl-3-phenyl-1H-pyrazol-1-yl)pyridine-3-carboxamide]
Sel cat. L (cathepsin L): ++ (++ means a Ki(cathepsin L)/Ki(calpain) ratio of ≧50)

CCN(CC)c1ccc(-c2ccn(-c3ncccc3C(=O)NC(Cc3ccccc3)C(=O)C(N)=O)n2)cc1 (centres unmarked) [Example 42, N-(3-Amino-1-benzyl-2,3-dioxopropyl)-2-{3-[4-(diethylamino)phenyl]-1H-pyrazol-1-yl}nicotinamide]
Sel cat. S (cathepsin S): ++ (++ means a Ki(cathepsin S)/Ki(calpain) ratio of ≧100)

CCCCC(NC(=O)c1cccnc1-n1ccc(-c2ccccc2)n1)C(=O)C(N)=O (centres unmarked) [Example 6, N-{1-[Amino(oxo)acetyl]pentyl}-2-(3-phenyl-1H-pyrazol-1-yl)nicotinamide]
Sel cat. S (cathepsin S): + (+ means 50≦Ki(cathepsin S)/Ki(calpain)<100)

NC(=O)C(=O)C(Cc1ccccc1)NC(=O)c1cccnc1-n1ccc(-c2ccncc2)n1 (centres unmarked) [Example 65, N-(3-Amino-1-benzyl-2,3-dioxopropyl)-2-(3-pyridin-4-yl-1H-pyrazol-1-yl)nicotinamide]
Sel cat. S (cathepsin S): ++ (++ means a Ki(cathepsin S)/Ki(calpain) ratio of ≧100)

CCCCC(NC(=O)c1cccnc1-n1ccc(-c2ccc(CN(CC)CC)cc2)n1)C(=O)C(N)=O (centres unmarked) [Example 44, N-{1-[Amino(oxo)acetyl]pentyl}-2-(3-{4-[(diethylamino)methyl]phenyl}-1H-pyrazol-1-yl)nicotinamide]
Sel cat. S (cathepsin S): + (+ means 50≦Ki(cathepsin S)/Ki(calpain)<100)

CCN(CC)Cc1ccc(-c2ccn(-c3ncccc3C(=O)NC(Cc3ccccc3)C(=O)C(N)=O)n2)cc1.Cl (centres unmarked) [Example 43, N-(3-Amino-1-benzyl-2,3-dioxopropyl)-2-(3-{4-[(diethylamino)methyl]phenyl}-1H-pyrazol-1-yl)nicotinamide hydrochloride]
Sel cat. S (cathepsin S): ++ (++ means a Ki(cathepsin S)/Ki(calpain) ratio of ≧100)

NC(=O)C(=O)C(Cc1ccccc1)NC(=O)c1cccnc1-n1cc(CN2CCCC2)c(-c2cccc(C(F)(F)F)c2)n1 (centres unmarked) [Example 178, N-[3-Amino-2,3-dioxo-1-(phenylmethyl)propyl]-2-{4-(pyrrolidin-1-ylmethyl)-3-[3-(trifluoronnethyl)phenyl]-1H-pyrazol-1-yl}pyridine-3-carboxamide]
Sel cat. S (cathepsin S): ++ (++ means a Ki(cathepsin S)/Ki(calpain) ratio of ≧100)

NC(=O)C(=O)C(Cc1ccccc1)NC(=O)c1cccnc1-n1cc(CCN2CCOCC2)c(-c2ccc(F)cc2)n1 (centres unmarked) [Example 165, N-[3-Amino-2,3-dioxo-1-(phenylmethyl)propyl]-2-[3-(4-fluorophenyl)-4-(2-morpholin-4-ylethyl)-1H-pyrazol-1-yl]pyridine-3-carboxamide]
Sel cat. S (cathepsin S): ++ (++ means a Ki(cathepsin S)/Ki(calpain) ratio of ≧100)

Cl.NC(=O)C(=O)C(Cc1ccccc1)NC(=O)c1cccnc1-n1ccc(-c2cccc(CN3CCOCC3)c2)n1 (centres unmarked) [Example 52, N-(3-Amino-1-benzyl-2,3-dioxopropyl)-2-{3-[3-(morpholin-4-ylmethyl)phenyl]-1H-pyrazol-1-yl}nicotinamide hydrochloride]
Sel cat. S (cathepsin S): ++ (++ means a Ki(cathepsin S)/Ki(calpain) ratio of ≧100)

CN(C)Cc1cn(-c2ncccc2C(=O)NC(Cc2ccccc2)C(=O)C(N)=O)nc1-c1cccc(C(F)(F)F)c1 (centres unmarked) [Example 176, N-[3-Amino-2,3-dioxo-1-(phenylmethyl)propyl]-2-{4-[(dimethylamino)methyl]-3-[3-(trifluoromethyl)phenyl]-1H-pyrazol-1-yl}pyridine-3-carboxamide]
Sel cat. S (cathepsin S): ++ (++ means a Ki(cathepsin S)/Ki(calpain) ratio of ≧100)

CCCCC(NC(=O)c1cccnc1-n1ccc(-c2ccc(N(CC)CC)cc2)n1)C(=O)C(N)=O (centres unmarked) [Example 47, N-{1-[Amino(oxo)acetyl]pentyl}-2-{3-[4-(diethylamino)phenyl]-1H-pyrazol-1-yl}nicotinamide]
Sel cat. S (cathepsin S): ++ (++ means a Ki(cathepsin S)/Ki(calpain) ratio of ≧100)

COCc1cn(-c2ncccc2C(=O)NC(Cc2ccccc2)C(=O)C(N)=O)nc1-c1ccc(F)cc1 (centres unmarked) [Example 170, N-[3-Amino-2,3-dioxo-1-(phenylmethyl)propyl]-2-{3-(4-fluorophenyl)-4-[(methyloxy)methyl]-1H-pyrazol-1-yl}pyridine-3-carboxamide]
Sel cat. L (cathepsin L): + (+ means 30≦Ki(cathepsin L)/Ki(calpain)<50)

CCCCC(NC(=O)c1cccnc1-n1cnc(-c2ccccc2)c1)C(=O)C(N)=O (centres unmarked) [Example 2, N-{1-[Amino(oxo)acetyl]pentyl}-2-(4-phenyl-1H-imidazol-1-yl)nicotinamide]
Sel cat. L (cathepsin L): ++ (++ means a Ki(cathepsin L)/Ki(calpain) ratio of ≧50)

NC(=O)C(=O)C(Cc1ccccc1)NC(=O)c1cccnc1-n1cc(-c2ccccc2F)cn1 (centres unmarked) [Example 104, N-[3-Amino-2,3-dioxo-1-(phenylmethyl)propyl]-2-[4-(2-fluorophenyl)-1H-pyrazol-1-yl]pyridine-3-carboxamide]
Sel cat. S (cathepsin S): + (+ means 50≦Ki(cathepsin S)/Ki(calpain)<100)
